Results: ChEMBL document CHEMBL1128830, “Synthesis and antibacterial activity of FR21818, a new, potent 1-methylcarbapenem” (1995)
In brackets after ≈: the same amount, converted by molar mass.

Experiments:
[1] = test system: Pseudomonas aeruginosa; experiment: Minimum inhibitory concentration required for antibacterial activity against Pseudomonas aeruginosa 26; type: functional
[2] = test system: Staphylococcus aureus; experiment: Minimum inhibitory concentration required for antibacterial activity against methicillin-resistant Staphylococcus aureus 3004; type: functional
[3] = target: T1, Dipeptidase 1 (Homo sapiens) (UniProt P16444); experiment: In vitro renal dehydropeptidase I (DHP-I) stability relative to meropenem
T1 sequence (whole entry): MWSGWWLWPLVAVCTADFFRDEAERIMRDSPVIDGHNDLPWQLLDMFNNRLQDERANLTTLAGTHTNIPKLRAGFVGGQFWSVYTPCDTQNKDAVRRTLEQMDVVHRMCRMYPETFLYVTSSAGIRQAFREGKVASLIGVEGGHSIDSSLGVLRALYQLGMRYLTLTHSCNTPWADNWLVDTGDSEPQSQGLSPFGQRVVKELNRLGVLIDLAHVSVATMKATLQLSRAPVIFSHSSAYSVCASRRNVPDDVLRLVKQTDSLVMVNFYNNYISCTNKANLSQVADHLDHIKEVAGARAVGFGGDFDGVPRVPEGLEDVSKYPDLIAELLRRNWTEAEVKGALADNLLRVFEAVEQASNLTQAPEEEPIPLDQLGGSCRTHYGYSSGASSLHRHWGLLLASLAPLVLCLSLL

[4] = test system: Staphylococcus aureus; experiment: Minimum inhibitory concentration required for antibacterial activity against Staphylococcus aureus 209P JC-1; type: functional
[5] = test system: Escherichia coli; experiment: Minimum inhibitory concentration required for antibacterial activity against Escherichia coli NIHJ JC-2; type: functional
[6] = test system: Proteus vulgaris; experiment: Minimum inhibitory concentration required for antibacterial activity against Proteus vulgaris IAM 1025; type: functional
[7] = test system: Mus musculus; experiment: […] percent urinary recovery in mice after subcutaneous administration at a dose of 20 mg/Kg; type: functional, organism-based; settings: Urine

SMILES | MIC [1] [µg/mL] | MIC [2] [µg/mL] | Stability [3] [%] | MIC [4] [µg/mL] | MIC [5] [µg/mL] | MIC [6] [µg/mL] | Recovery [7] [%]
C[C@@H](O)[C@H]1C(=O)N2C(C(=O)O)=C(S[C@@H]3CN[C@H](Cc4cc[n+](CCO)n4C)C3)[C@H](C)[C@H]12.[Cl-] | 0.2 | 6.25 | 26 | 0.05 | 0.2 | 1.56 | 68.9
C[C@@H](O)[C@H]1C(=O)N2C(C(=O)[O-])=C(SC3Cn4cnc[n+]4C3)[C@H](C)[C@H]12 (stereo partly specified) [BIAPENEM] | 0.2 (≈ 0.571 µM) | 25 (≈ 71.3 µM) | 15.4 | 0.1 (≈ 0.285 µM) | 0.39 (≈ 1.11 µM) | 3.13 (≈ 8.93 µM) | 70.7
C[C@@H](O)[C@H]1C(=O)N2C(C(=O)O)=C(S[C@@H]3CN[C@H](C(=O)N(C)C)C3)[C@H](C)[C@H]12 [MEROPENEM] | 0.2 (≈ 0.522 µM) | 25 (≈ 65.2 µM) | 100 | 0.1 (≈ 0.261 µM) | < 0.025 | 0.1 (≈ 0.261 µM) | 25
